Earlier results in patent publication US11642339B2 (THERAVANCE BIOPHARMA R&D IP, LLC, priority 2017, dated 2023).

Tests used:
[1] = test system: patients with functional dyspepsia; settings: Japan, placebo 35%; cited from earlier work
[2] = test system: patients on daily therapy; settings: long-term use; cited from earlier work
[3] = test system: patients with functional dyspepsia; settings: after 4 weeks of treatment; placebo 12.7%; cited from earlier work

## COc1cc(O)c(C(=O)Nc2nc(C(=O)NCCN(C(C)C)C(C)C)cs2)cc1OC [Acotiamide]
[1]
  patients with symptom improvement: 52%

## CCN(CC)CCNC(=O)c1cc(Cl)c(N)cc1OC [metoclopramide]
[2]
  patients with adverse CNS effects: up to 30%

## O=C1[C@@H]2[C@H]3CC[C@H](C3)[C@@H]2C(=O)N1CCCCN1CCN(c2ncccn2)CC1 [tandospirone]
[3]
  response rate: 31.5%
